{"source": "patent US20210382058A1", "about": "“PATIENT SELECTION FOR TREATMENT OF MYC POSITIVE CANCERS WITH INDENOISOQUINOLINES” (Purdue Research Foundation, priority 2020, published 2021)", "key": {"[1]": {"test_system": "MYC protein expression in MCF-7 breast cancer cells", "test": "Western blotting of MYC protein level in MCF-7 cells", "assay_type": "cell-based, human", "conditions": "Homo sapiens, MCF7; western blotting, MCF-7 cells, 0.5, 1, 2, and 4 μM, 24 hours; read-out: MYC Inhibition", "procedure,_shortened": "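Immunoblotting with ECL detection quantified MYC, with GAPDH (1:2000) as reference and anti-MYC at 1:1000.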"}, "[2]": {"test_system": "NCI-60 cancer cell lines", "test": "NCI-60 cancer cell line drug screen (GI50, MGM)", "assay_type": "cell-based, human", "conditions": "Homo sapiens", "procedure": "Cancer cells were incubated with the test compounds at five concentrations ranging from 100 μM to 10 nM for 48 h. […] The approximate average of GI50 values across the entire panel of NCI-60 cancer cell lines for each compound was recorded as the MGM value."}}, "note": "Where two headings read alike, the source gives them in different places."}
{"molecule": "COc1cc2c3c(n(CCCn4ccnc4)c(=O)c2cc1OC)-c1cc2c(cc1C3=O)OCO2", "note": "[Compound 42]", "values": [{"measurement": "minimal effective concentration", "setting": "[1]", "result": "0.5 to 1", "unit": "µM"}, {"measurement": "GI50", "setting": "[2]; 786-0, Renal Cancer, 786-0, read-out: Antiproliferative Activities [GI50 (μM)]", "result": "< 0.01", "unit": "µM"}, {"measurement": "GI50", "setting": "[2]; A498, Renal Cancer, A498, read-out: Antiproliferative Activities [GI50 (μM)]", "result": 7.17, "unit": "µM"}, {"measurement": "GI50", "setting": "[2]; A549, Non-Small Cell Lung Cancer, A549/ATCC, read-out: Antiproliferative Activities [GI50 (μM)]", "result": 10.5, "unit": "µM"}, {"measurement": "GI50", "setting": "[2]; ACHN, Renal Cancer, ACHN, read-out: Antiproliferative Activities [GI50 (μM)]", "result": "< 0.01", "unit": "µM"}, {"measurement": "GI50", "setting": "[2]; CAKI-1, Renal Cancer, CAKI-1, read-out: Antiproliferative Activities [GI50 (μM)]", "result": 0.32, "unit": "µM"}, {"measurement": "GI50", "setting": "[2]; CCRF-CEM, Leukemia, CCRF-CEM, read-out: Antiproliferative Activities [GI50 (μM)]", "result": "< 0.01", "unit": "µM"}, {"measurement": "GI50", "setting": "[2]; COLO 205, Colon Cancer, COLO 205, read-out: Antiproliferative Activities [GI50 (μM)]", "result": "> 100", "unit": "µM"}, {"measurement": "GI50", "setting": "[2]; DU-145, Prostate Cancer, DU-145, read-out: Antiproliferative Activities [GI50 (μM)]", "result": "< 0.01", "unit": "µM"}, {"measurement": "GI50", "setting": "[2]; EKVX, Non-Small Cell Lung Cancer, EKVX, read-out: Antiproliferative Activities [GI50 (μM)]", "result": 70.7, "unit": "µM"}, {"measurement": "GI50", "setting": "[2]; HCC 2998, Colon Cancer, HCC-2998, read-out: Antiproliferative Activities [GI50 (μM)]", "result": 29.3, "unit": "µM"}, {"measurement": "GI50", "setting": "[2]; HCT-15, Colon Cancer, HCT-15, read-out: Antiproliferative Activities [GI50 (μM)]", "result": "> 100", "unit": "µM"}, {"measurement": "GI50", "setting": "[2]; HCT-116, Colon Cancer, HCT-116, read-out: Antiproliferative Activities [GI50 (μM)]", "result": 0.17, "unit": "µM"}, {"measurement": "GI50", "setting": "[2]; HL-60, read-out: Antiproliferative Activities [GI50 (μM)]", "result": 0.02, "unit": "µM"}, {"measurement": "GI50", "setting": "[2]; HOP-62, Non-Small Cell Lung Cancer, HOP-62, read-out: Antiproliferative Activities [GI50 (μM)]", "result": "< 0.01", "unit": "µM"}, {"measurement": "GI50", "setting": "[2]; HOP-92, Non-Small Cell Lung Cancer, HOP-92, read-out: Antiproliferative Activities [GI50 (μM)]", "result": 0.19, "unit": "µM"}, {"measurement": "GI50", "setting": "[2]; HT-29, Colon Cancer, HT29, read-out: Antiproliferative Activities [GI50 (μM)]", "result": "> 100", "unit": "µM"}, {"measurement": "GI50", "setting": "[2]; Hs-578T, Breast Cancer, HS 578T, read-out: Antiproliferative Activities [GI50 (μM)]", "result": 54.2, "unit": "µM"}, {"measurement": "GI50", "setting": "[2]; IGROV-1, Ovarian Cancer, IGROV1, read-out: Antiproliferative Activities [GI50 (μM)]", "result": 6.72, "unit": "µM"}, {"measurement": "GI50", "setting": "[2]; K562, Leukemia, K-562, read-out: Antiproliferative Activities [GI50 (μM)]", "result": 1.49, "unit": "µM"}, {"measurement": "GI50", "setting": "[2]; KM12, Colon Cancer, KM12, read-out: Antiproliferative Activities [GI50 (μM)]", "result": "> 100", "unit": "µM"}, {"measurement": "GI50", "setting": "[2]; LOX IMVI, Melanoma, LOX IMVI, read-out: Antiproliferative Activities [GI50 (μM)]", "result": 0.06, "unit": "µM"}, {"measurement": "GI50", "setting": "[2]; Leukemia, SR, read-out: Antiproliferative Activities [GI50 (μM)]", "result": "< 0.01", "unit": "µM"}, {"measurement": "GI50", "setting": "[2]; MCF7, Breast Cancer, MCF7, read-out: Antiproliferative Activities [GI50 (μM)]", "result": "< 0.01", "unit": "µM"}, {"measurement": "GI50", "setting": "[2]; MDA-MB-231, Breast Cancer, MDA-MB-231/ATCC, read-out: Antiproliferative Activities [GI50 (μM)]", "result": 77.8, "unit": "µM"}, {"measurement": "GI50", "setting": "[2]; MDA-MB-435, Melanoma, MDA-MB-435, read-out: Antiproliferative Activities [GI50 (μM)]", "result": "> 100", "unit": "µM"}, {"measurement": "GI50", "setting": "[2]; MOLT-4, Leukemia, MOLT-4, read-out: Antiproliferative Activities [GI50 (μM)]", "result": "< 0.01", "unit": "µM"}, {"measurement": "GI50", "setting": "[2]; Malme-3M, Melanoma, MALME-3M, read-out: Antiproliferative Activities [GI50 (μM)]", "result": 1.6, "unit": "µM"}, {"measurement": "GI50", "setting": "[2]; Melanoma, M14, read-out: Antiproliferative Activities [GI50 (μM)]", "result": "< 0.01", "unit": "µM"}, {"measurement": "GI50", "setting": "[2]; NCI-H23, Non-Small Cell Lung Cancer, NCI-H23, read-out: Antiproliferative Activities [GI50 (μM)]", "result": 0.09, "unit": "µM"}, {"measurement": "GI50", "setting": "[2]; NCI-H226, Non-Small Cell Lung Cancer, NCI-H226, read-out: Antiproliferative Activities [GI50 (μM)]", "result": 0.37, "unit": "µM"}, {"measurement": "GI50", "setting": "[2]; NCI-H322M, Non-Small Cell Lung Cancer, NCI-H322M, read-out: Antiproliferative Activities [GI50 (μM)]", "result": "> 100", "unit": "µM"}, {"measurement": "GI50", "setting": "[2]; NCI-H460, Non-Small Cell Lung Cancer, NCI-H460, read-out: Antiproliferative Activities [GI50 (μM)]", "result": "< 0.01", "unit": "µM"}, {"measurement": "GI50", "setting": "[2]; NCI-H522, Non-Small Cell Lung Cancer, NCI-H522, read-out: Antiproliferative Activities [GI50 (μM)]", "result": "< 0.01", "unit": "µM"}, {"measurement": "GI50", "setting": "[2]; OVCAR-3, Ovarian Cancer, OVCAR-3, read-out: Antiproliferative Activities [GI50 (μM)]", "result": 16.4, "unit": "µM"}, {"measurement": "GI50", "setting": "[2]; OVCAR-4, Ovarian Cancer, OVCAR-4, read-out: Antiproliferative Activities [GI50 (μM)]", "result": "> 100", "unit": "µM"}, {"measurement": "GI50", "setting": "[2]; OVCAR-5, Ovarian Cancer, OVCAR-5, read-out: Antiproliferative Activities [GI50 (μM)]", "result": "> 100", "unit": "µM"}, {"measurement": "GI50", "setting": "[2]; OVCAR-8, Ovarian Cancer, OVCAR-8, read-out: Antiproliferative Activities [GI50 (μM)]", "result": 1.03, "unit": "µM"}, {"measurement": "GI50", "setting": "[2]; Ovarian Cancer, NCl/ADR-RES, read-out: Antiproliferative Activities [GI50 (μM)]", "result": 0.35, "unit": "µM"}, {"measurement": "GI50", "setting": "[2]; Prostate Cancer, PC-3, read-out: Antiproliferative Activities [GI50 (μM)]", "result": 34.9, "unit": "µM"}, {"measurement": "GI50", "setting": "[2]; RPMI-8226, Leukemia, RPMI-8226, read-out: Antiproliferative Activities [GI50 (μM)]", "result": "< 0.01", "unit": "µM"}, {"measurement": "GI50", "setting": "[2]; RXF 393, Renal Cancer, RXF 393, read-out: Antiproliferative Activities [GI50 (μM)]", "result": 8, "unit": "µM"}, {"measurement": "GI50", "setting": "[2]; Renal Cancer, U0-31, read-out: Antiproliferative Activities [GI50 (μM)]", "result": 0.03, "unit": "µM"}, {"measurement": "GI50", "setting": "[2]; SF-295, CNS Cancer, SF-295, read-out: Antiproliferative Activities [GI50 (μM)]", "result": "< 0.01", "unit": "µM"}, {"measurement": "GI50", "setting": "[2]; SF-539, CNS Cancer, SF-539, read-out: Antiproliferative Activities [GI50 (μM)]", "result": "< 0.01", "unit": "µM"}, {"measurement": "GI50", "setting": "[2]; SK-MEL-2, Melanoma, SK-MEL-2, read-out: Antiproliferative Activities [GI50 (μM)]", "result": "> 100", "unit": "µM"}, {"measurement": "GI50", "setting": "[2]; SK-MEL-5, Melanoma, SK-MEL-5, read-out: Antiproliferative Activities [GI50 (μM)]", "result": 0.22, "unit": "µM"}, {"measurement": "GI50", "setting": "[2]; SK-MEL-28, Melanoma, SK-MEL-28, read-out: Antiproliferative Activities [GI50 (μM)]", "result": "> 100", "unit": "µM"}, {"measurement": "GI50", "setting": "[2]; SK-OV-3, Ovarian Cancer, SK-OV-3, read-out: Antiproliferative Activities [GI50 (μM)]", "result": "< 0.01", "unit": "µM"}, {"measurement": "GI50", "setting": "[2]; SN12C, Renal Cancer, SN12C, read-out: Antiproliferative Activities [GI50 (μM)]", "result": "< 0.01", "unit": "µM"}, {"measurement": "GI50", "setting": "[2]; SNB-19, CNS Cancer, SNB-19, read-out: Antiproliferative Activities [GI50 (μM)]", "result": "< 0.01", "unit": "µM"}, {"measurement": "GI50", "setting": "[2]; SNB-75, CNS Cancer, SNB-75, read-out: Antiproliferative Activities [GI50 (μM)]", "result": 0.23, "unit": "µM"}, {"measurement": "GI50", "setting": "[2]; SW-620, Colon Cancer, SW-620, read-out: Antiproliferative Activities [GI50 (μM)]", "result": 0.06, "unit": "µM"}, {"measurement": "GI50", "setting": "[2]; T47D, Breast Cancer, T-47D, read-out: Antiproliferative Activities [GI50 (μM)]", "result": "< 0.01", "unit": "µM"}, {"measurement": "GI50", "setting": "[2]; TK-10, Renal Cancer, TK-10, read-out: Antiproliferative Activities [GI50 (μM)]", "result": 73.7, "unit": "µM"}, {"measurement": "GI50", "setting": "[2]; U-251, CNS Cancer, U251, read-out: Antiproliferative Activities [GI50 (μM)]", "result": "< 0.01", "unit": "µM"}, {"measurement": "GI50", "setting": "[2]; UACC-62, Melanoma, UACC-62, read-out: Antiproliferative Activities [GI50 (μM)]", "result": "< 0.01", "unit": "µM"}, {"measurement": "GI50", "setting": "[2]; UACC-257, Melanoma, UACC-257, read-out: Antiproliferative Activities [GI50 (μM)]", "result": "> 100", "unit": "µM"}]}
